Results as given in patent publication US20210085640A1, “ACYLATED CATECHIN POLYPHENOLS AND METHODS OF THEIR USE FOR THE TREATMENT OF CANCER” (Flagship Pioneering Innovations V, Inc., priority 2018, published 2021).

Tests used:
Format in all cases: cell-based
[1] = system: PC-3 prostate cancer cells; assay: Cancer cell survival (CellTiter-Glo), PC-3; settings: PC-3 cells, 72 h
Procedure, shortened: (§1)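 Following overnight plating of 4×10^3 cells per well, triplicate wells received compound at nine concentrations (10× dosing stocks: fatty acids 1 μM-10 mM, all others 100 nM-1 mM). Incubation lasted 72 h at 37 C under 5% CO2. CellTiter-Glo luminescence then gave percent survival and IC50.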

[2] = system: HCT 116 colorectal cancer cells; assay: Cancer cell survival (CellTiter-Glo), HCT 116; settings: HCT 116 cells, 72 h
Procedure, shortened: as §1

T24 bladder cancer cells = assay: Cancer cell survival (CellTiter-Glo), T24; settings: 72 h
Procedure, shortened: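 Viability by CellTiter-Glo after 72 h compound treatment of T24 bladder cancer cells (4×10^3/well, plated the night before), nine concentration levels in triplicate. Percent survival normalised to untreated cells minus medium background, from which IC50 was determined.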

AGS stomach cancer cells = assay: Cancer cell survival (CellTiter-Glo), AGS; set-up: Cell survival at given concentration: unit not given here
Procedure, shortened: as §1

A-431 skin cancer cells = assay: Cancer cell survival (CellTiter-Glo), A-431; set-up: Cell survival at given concentration: unit not given here; settings: A-431 cells, 72 h
Procedure, shortened: as §1

A549 lung cancer cells = assay: Cancer cell survival (CellTiter-Glo), A549; settings: 72 h
Procedure, shortened: as §1

[3] = system: Daudi lymphoma cancer cells; assay: Cancer cell survival (CellTiter-Glo), Daudi; settings: 72 h
Procedure, shortened: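 Daudi cells (4×10^3/well) were exposed for 72 h at 37 °C to nine concentrations of compound, added as 10× solutions spanning 1 μM–10 mM (fatty acids) or 100 nM–1 mM (others). CellTiter-Glo luminescence gave % survival versus untreated, medium-blank corrected; IC50 derived.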

MCF7 breast cancer cells = assay: Cancer cell survival (CellTiter-Glo), MCF7; settings: 72 h
Procedure, shortened: as §1

Structure (SMILES): O=c1oc2cc(O)ccc2c2cc(O)c(O)cc12 [urolithin C]
- Cell survival at given concentration ([1]; 101 nM): 1.03
- Cell survival at given concentration ([1]; 318 nM): 1.00
- Cell survival at given concentration ([1]; 1 μM): 1.04
- Cell survival at given concentration ([1]; 3 μM): 1.01
- Cell survival at given concentration ([1]; 10 μM): 1.07
- Cell survival at given concentration ([1]; 32 μM): 0.93
- Cell survival at given concentration ([1]; 100 μM): 0.08
- Cell survival at given concentration ([1]; 316 μM): 0.04
- Cell survival at given concentration ([1]; 1000 μM): 0.03
- IC50 ([1]; Table 8.1): 52.6 µM
- Cell survival at given concentration ([2]; 101 nM): 1.00
- Cell survival at given concentration ([2]; 318 nM): 0.99
- Cell survival at given concentration ([2]; 1 μM): 1.00
- Cell survival at given concentration ([2]; 3 μM): 0.99
- Cell survival at given concentration ([2]; 10 μM): 0.94
- Cell survival at given concentration ([2]; 32 μM): 0.34
- Cell survival at given concentration ([2]; 100 μM): 0.02
- Cell survival at given concentration ([2]; 316 μM): 0.01
- Cell survival at given concentration ([2]; 1000 μM): 0.01
- IC50 ([2]; Table 6.1): 25.5 µM
- Cell survival at given concentration (T24 bladder cancer cells; 101 nM): 1.00
- Cell survival at given concentration (T24 bladder cancer cells; 318 nM): 0.94
- Cell survival at given concentration (T24 bladder cancer cells; 1 μM): 0.96
- Cell survival at given concentration (T24 bladder cancer cells; 3 μM): 0.96
- Cell survival at given concentration (T24 bladder cancer cells; 10 μM): 0.93
- Cell survival at given concentration (T24 bladder cancer cells; 32 μM): 0.37
- Cell survival at given concentration (T24 bladder cancer cells; 100 μM): 0.12
- Cell survival at given concentration (T24 bladder cancer cells; 316 μM): 0.08
- Cell survival at given concentration (T24 bladder cancer cells; 1000 μM): 0.07
- IC50 (T24 bladder cancer cells; Table 3.1, read-out: 1050): 26.1 µM
- Cell survival at given concentration (AGS stomach cancer cells; 101 nM): 0.98
- Cell survival at given concentration (AGS stomach cancer cells; 318 nM): 0.99
- Cell survival at given concentration (AGS stomach cancer cells; 1 μM, Table 10.1): 0.98
- Cell survival at given concentration (AGS stomach cancer cells; 3 μM, Table 10.1): 0.99
- Cell survival at given concentration (AGS stomach cancer cells; 10 μM, Table 10.1): 1.02
- Cell survival at given concentration (AGS stomach cancer cells; 32 μM, Table 10.1): 0.86
- Cell survival at given concentration (AGS stomach cancer cells; 100 μM, Table 10.1): 0.15
- Cell survival at given concentration (AGS stomach cancer cells; 316 μM): 0.04
- Cell survival at given concentration (AGS stomach cancer cells; 1000 μM): 0.02
- IC50 (AGS stomach cancer cells; Table 10.1): 56 µM
- Cell survival at given concentration (A-431 skin cancer cells; 101 nM): 1.02
- Cell survival at given concentration (A-431 skin cancer cells; 318 nM): 1.02
- Cell survival at given concentration (A-431 skin cancer cells; 1 μM): 1.02
- Cell survival at given concentration (A-431 skin cancer cells; 3 μM): 1.03
- Cell survival at given concentration (A-431 skin cancer cells; 10 μM): 1.02
- Cell survival at given concentration (A-431 skin cancer cells; 32 μM): 0.95
- Cell survival at given concentration (A-431 skin cancer cells; 100 μM): 0.34
- Cell survival at given concentration (A-431 skin cancer cells; 316 μM): 0.20
- Cell survival at given concentration (A-431 skin cancer cells; 1000 μM): 0.06
- IC50 (A-431 skin cancer cells; Table 9.1): 76.7 µM
- Cell survival at given concentration (A549 lung cancer cells; 101 nM): 0.99
- Cell survival at given concentration (A549 lung cancer cells; 318 nM): 0.99
- Cell survival at given concentration (A549 lung cancer cells; 1 μM): 1.02
- Cell survival at given concentration (A549 lung cancer cells; 3 μM): 1.04
- Cell survival at given concentration (A549 lung cancer cells; 10 μM): 1.04
- Cell survival at given concentration (A549 lung cancer cells; 32 μM): 1.02
- Cell survival at given concentration (A549 lung cancer cells; 100 μM): 0.36
- Cell survival at given concentration (A549 lung cancer cells; 316 μM): 0.16
- Cell survival at given concentration (A549 lung cancer cells; 1000 μM): 0.12
- IC50 (A549 lung cancer cells; Table 7.1): 93.5 µM
- Cell survival at given concentration ([3]; 101 nM): 0.99
- Cell survival at given concentration ([3]; 318 nM): 0.99
- Cell survival at given concentration ([3]; 1 μM): 1.00
- Cell survival at given concentration ([3]; 3 μM): 1.00
- Cell survival at given concentration ([3]; 10 μM): 0.89
- Cell survival at given concentration ([3]; 32 μM): 0.36
- Cell survival at given concentration ([3]; 100 μM): 0.18
- Cell survival at given concentration ([3]; 316 μM): 0.16
- Cell survival at given concentration ([3]; 1000 μM): 0.07
- IC50 ([3]; Table 4.1): 24.1 µM
- Cell survival at given concentration (MCF7 breast cancer cells; 101 nM): 0.97
- Cell survival at given concentration (MCF7 breast cancer cells; 318 nM): 0.99
- Cell survival at given concentration (MCF7 breast cancer cells; 1 μM): 0.97
- Cell survival at given concentration (MCF7 breast cancer cells; 3 μM): 1.02
- Cell survival at given concentration (MCF7 breast cancer cells; 10 μM): 1.07
- Cell survival at given concentration (MCF7 breast cancer cells; 32 μM): 0.76
- Cell survival at given concentration (MCF7 breast cancer cells; 100 μM): 0.22
- Cell survival at given concentration (MCF7 breast cancer cells; 316 μM): 0.21
- Cell survival at given concentration (MCF7 breast cancer cells; 1000 μM): 0.20
- IC50 (MCF7 breast cancer cells; Table 5.1): 34.7 µM
